Values of other authors, collected in patent US20250205258A1 (priority 2022, published 2025).

How the values were obtained:
STAT3 signaling pathway = conditions: by inhibiting the STAT3 signaling pathway; cited from earlier work
melanoma A375 cells = conditions: concentration- and time-dependent; cited from earlier work
[1] = test system: liver cancer stem cell markers CD133, CD44, and ESA; conditions: cited from earlier work
[2] = test system: ovarian cancer cells SK—OV-3; conditions: concentration- and time-dependent, EGFR/AKT/ERK signaling pathway; cited from earlier work
neuroblastoma cells U87 = conditions: through both apoptosis and necrosis; cited from earlier work

C[C@]12CC[C@H](O)C[C@H]1CC[C@@H]1[C@@H]2CC[C@]2(C)[C@@H](c3ccc(=O)oc3)CC[C@]12O [bufalin, Bufalin]
tumor microenvironment-mediated angiogenesis (STAT3 signaling pathway): suppress tumor microenvironment-mediated angiogenesis | proliferation of melanoma A375 cells (melanoma A375 cells): inhibits the proliferation | expression of liver cancer stem cell markers CD133, CD44, and ESA [1]: significantly inhibit | proliferation of ovarian cancer cells SK—OV-3 [2]: inhibit the proliferation | death of neuroblastoma cells U87 (neuroblastoma cells U87): induces the death
